In EP1175509B1 (priority 1999, dated 2000):

Columns and labels:
Assay type in all cases: biochemical
Conditions in all cases: pH 8
[1] = biological target: T1, FBS-AChE, soluble (Bos taurus, UniProt P23795)
T1 sequence (P23795 31-613): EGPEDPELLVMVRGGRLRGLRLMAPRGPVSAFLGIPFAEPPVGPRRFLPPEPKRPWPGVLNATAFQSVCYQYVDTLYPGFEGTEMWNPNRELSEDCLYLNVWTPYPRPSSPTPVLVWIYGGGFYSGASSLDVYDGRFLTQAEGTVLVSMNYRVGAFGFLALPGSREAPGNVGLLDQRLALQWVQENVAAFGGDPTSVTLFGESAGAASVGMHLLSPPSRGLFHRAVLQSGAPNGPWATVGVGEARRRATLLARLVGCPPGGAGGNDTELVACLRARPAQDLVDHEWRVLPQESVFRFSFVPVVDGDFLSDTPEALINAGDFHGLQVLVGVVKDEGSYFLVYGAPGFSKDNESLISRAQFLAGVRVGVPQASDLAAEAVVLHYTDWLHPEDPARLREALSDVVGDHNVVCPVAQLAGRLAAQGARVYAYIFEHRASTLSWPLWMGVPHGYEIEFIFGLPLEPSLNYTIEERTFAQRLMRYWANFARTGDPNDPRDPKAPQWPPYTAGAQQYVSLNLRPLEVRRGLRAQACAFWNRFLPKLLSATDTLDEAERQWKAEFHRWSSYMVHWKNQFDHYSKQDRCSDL

[2] = biological target: T2, FBS-AChE, immobilized (polyurethane coupled) (Bos taurus, UniProt P23795)
T2 sequence (P23795 31-613): T1 sequence (P23795 31-613)

[3] = biological target: Equine-BChE, soluble (Equus caballus, UniProt P81908)
[4] = biological target: Equine-BChE, immobilized (polyurethane coupled) (Equus caballus, UniProt P81908)
Equine-BChE, immobilized (polyurethane coupled), sequence (P81908 whole entry): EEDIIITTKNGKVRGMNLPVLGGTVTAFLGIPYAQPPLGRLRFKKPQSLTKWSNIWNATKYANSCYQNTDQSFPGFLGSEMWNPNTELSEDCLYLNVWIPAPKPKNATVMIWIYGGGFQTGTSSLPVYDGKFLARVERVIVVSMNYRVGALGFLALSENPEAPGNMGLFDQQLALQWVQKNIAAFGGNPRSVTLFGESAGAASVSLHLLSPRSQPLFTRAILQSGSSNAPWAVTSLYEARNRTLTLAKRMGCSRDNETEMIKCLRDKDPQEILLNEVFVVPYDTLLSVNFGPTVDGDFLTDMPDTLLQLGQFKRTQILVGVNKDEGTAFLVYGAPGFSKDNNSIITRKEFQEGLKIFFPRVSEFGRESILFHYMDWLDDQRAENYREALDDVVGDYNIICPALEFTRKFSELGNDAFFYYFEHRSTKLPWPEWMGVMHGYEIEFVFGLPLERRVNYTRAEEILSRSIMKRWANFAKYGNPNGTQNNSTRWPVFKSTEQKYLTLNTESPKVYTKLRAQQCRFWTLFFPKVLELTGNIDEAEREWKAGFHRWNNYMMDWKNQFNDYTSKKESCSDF

Equine-BChE, soluble, sequence (P81908 whole entry): as above

| SMILES | Kcat [1] | Km [1] | Kss [1] | Kcat [2] | Km [2] | Kss [2] | B [3] | Kcat [3] | Km [3] | Kss [3] | Kcat [4] | Km [4] | Kss [4] |
| --- | --- | --- | --- | --- | --- | --- | --- | --- | --- | --- | --- | --- | --- |
| CC(=O)SCC[N+](C)(C)C.[I-] [acetylthiocholine, Acetylthiocholine iodide] | 4670 s⁻¹ | 119 µM | 18 mM | 983 s⁻¹ | 1090 µM | 22 mM | – | – | – | – | – | – | – |
| CCCC(=O)SCC[N+](C)(C)C.[I-] [butyrylthiocholine, S-butyrylthiocholine iodide] | – | – | – | – | – | – | 1.8 | 517 s⁻¹ | 127 µM | 1.5 mM | 300 s⁻¹ | 1200 µM | 16 mM |
